Source: patent US20250388543A1, “HETEROARYL COMPOUNDS FOR THE TREATMENT OF PAIN” (VERTEX PHARMACEUTICALS INCORPORATED, priority 2022, published 2025)

What follows are molecules tested against human NaV 1.8 (Homo sapiens, UniProt Q9Y5Y9) (assay: E-VIPR Assay Detecting and Measuring NaV Inhibition Properties). Conditions: HEK cells expressing a truncated form of human NaV 1.8 with full channel activity; electrical stimulation, membrane-potential FRET dyes; 30 minutes compound incubation; read-out: measured IC50 value in the E-VIPR Assay.
Chain of human NaV 1.8 (Q9Y5Y9 126-1722 limits assumed): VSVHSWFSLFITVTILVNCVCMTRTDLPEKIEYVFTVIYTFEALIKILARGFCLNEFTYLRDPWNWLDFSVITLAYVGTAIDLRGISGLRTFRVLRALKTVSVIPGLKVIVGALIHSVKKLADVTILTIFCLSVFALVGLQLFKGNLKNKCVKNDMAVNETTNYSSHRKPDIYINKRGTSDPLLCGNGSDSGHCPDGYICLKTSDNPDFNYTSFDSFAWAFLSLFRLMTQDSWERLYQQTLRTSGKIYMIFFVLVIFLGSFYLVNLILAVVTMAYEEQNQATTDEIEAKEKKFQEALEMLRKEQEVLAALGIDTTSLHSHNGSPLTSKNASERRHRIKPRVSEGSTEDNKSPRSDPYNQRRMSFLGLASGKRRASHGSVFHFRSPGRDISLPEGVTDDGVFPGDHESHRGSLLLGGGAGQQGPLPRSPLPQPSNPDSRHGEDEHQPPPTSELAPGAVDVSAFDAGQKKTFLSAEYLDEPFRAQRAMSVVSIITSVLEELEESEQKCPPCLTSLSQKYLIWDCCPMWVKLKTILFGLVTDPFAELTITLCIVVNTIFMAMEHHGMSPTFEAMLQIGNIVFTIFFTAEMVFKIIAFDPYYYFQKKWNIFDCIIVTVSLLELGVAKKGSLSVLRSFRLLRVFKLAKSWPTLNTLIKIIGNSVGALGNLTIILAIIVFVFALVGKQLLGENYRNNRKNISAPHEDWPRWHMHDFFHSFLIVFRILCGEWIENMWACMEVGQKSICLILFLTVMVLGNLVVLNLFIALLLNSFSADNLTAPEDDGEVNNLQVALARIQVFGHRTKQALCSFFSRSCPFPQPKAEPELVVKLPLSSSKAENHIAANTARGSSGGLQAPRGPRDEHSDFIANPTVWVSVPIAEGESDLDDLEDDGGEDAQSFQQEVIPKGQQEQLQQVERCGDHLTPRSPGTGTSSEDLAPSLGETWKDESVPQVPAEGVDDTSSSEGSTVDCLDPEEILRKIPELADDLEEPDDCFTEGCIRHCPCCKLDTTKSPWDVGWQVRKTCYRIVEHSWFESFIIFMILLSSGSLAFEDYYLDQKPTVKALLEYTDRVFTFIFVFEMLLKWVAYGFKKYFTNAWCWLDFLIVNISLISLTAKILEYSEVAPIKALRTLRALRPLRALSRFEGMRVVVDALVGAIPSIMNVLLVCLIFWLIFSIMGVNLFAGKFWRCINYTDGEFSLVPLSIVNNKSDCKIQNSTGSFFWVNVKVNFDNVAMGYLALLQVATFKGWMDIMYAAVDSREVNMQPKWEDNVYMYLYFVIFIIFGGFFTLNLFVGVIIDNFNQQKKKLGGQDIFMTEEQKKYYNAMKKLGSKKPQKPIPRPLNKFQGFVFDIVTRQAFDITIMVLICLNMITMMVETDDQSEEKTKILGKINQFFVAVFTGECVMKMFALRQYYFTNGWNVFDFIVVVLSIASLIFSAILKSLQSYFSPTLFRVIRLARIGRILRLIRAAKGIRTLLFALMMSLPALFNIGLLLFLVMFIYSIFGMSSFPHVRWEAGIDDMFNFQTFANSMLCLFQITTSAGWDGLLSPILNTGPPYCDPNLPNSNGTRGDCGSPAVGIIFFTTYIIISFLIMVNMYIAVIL
Type: cell-based
From the text: E-VIPR Assay Detecting and Measuring NaV Inhibition Properties
Sodium ion channels are voltage-dependent proteins that can be activated by inducing membrane voltage changes by applying electric fields. The electrical stimulation instrument and methods of use, referred to as E-VIPR, are described in International Publication No. WO 2002/008748 A3 and C.-J. Huang et al. Characterization of voltage-gated sodium channel blockers by electrical stimulation and fluorescence detection of membrane potential, 24 Nature Biotech. 439-46 (2006), both of which are incorporated by reference in their entirety. The instrument comprises a microtiter plate handler, an optical system for exciting the coumarin dye while simultaneously recording the coumarin and oxonol emissions, a waveform generator, a current- or voltage-controlled amplifier, and parallel electrode pairs that are inserted into assay plate wells. Under integrated computer control, this instrument passes user-programmed electrical stimulus protocols to cells within the wells of the microtiter plate.
16-20 hours prior to running the assay on E-VIPR, HEK cells expressing a truncated form of human NaV 1.8 with full channel activity were seeded into microtiter 384-well plates, pre-coated with matrigel, at a density of 25,000 cells per well. 2.5-5% KIR2.1 BacMam virus was added to the final cell suspension before seeding into cell plates. HEK cells were grown in Dulbecco's Modified Eagle's Medium (DMEM) supplemented with 10% FBS (Fetal Bovine Serum, qualified; Sigma #F4135), 1% NEAA (Non-Essential Amino Acids, Gibco #11140), 1% HEPES (Gibco #15630), 1% Pen-Strep (Penicillin-Streptomycin; Gibco #15140) and 5 μg/ml Blasticidin (Gibco #R210-01). Cells were expanded in 5-layer CellSTACK culture chambers or cell culture flasks with vented caps, with 90-95% humidity and 5% CO2.
Reagents and Stock Solutions:
100 mg/mL Pluronic F-127 (Sigma #P2443), in dry DMSO
Compound Plates: Corning 384-well Polypropylene Round Bottom #3656
Cell Plates: 384-well tissue culture treated plates (Greiner #781091-2B)
2.5-5% KIR 2.1 Bacmam virus (produced in-house), prepared as described in Section 3.3 of J. A. Fornwald et al., Gene Expression in Mammalian Cells Using BacMam, a Modified Baculovirus System, 1350 Methods in Molecular Biology 95-116 (2016), the entire contents of which are incorporated by reference. The concentration used can be dependent on viral titer of each batch.
5 mM DiSBAC6(3), a voltage sensitive oxonol acceptor (CAS number 169211-44-3; 5-[3-(1,3-dihexylhexahydro-4,6-dioxo-2-thioxo-5-pyrimidinyl)-2-propen-1-ylidene]-1,3-dihexyldihydro-2-thioxo-4,6(1H,5H)-pyrimidinedione), in dry DMSO. The preparation of DiSBAC6(3) is analogous to that of DiSBAC4(3) as described in Voltage Sensing by Fluorescence Resonance Energy Transfer in Single Cells, Gonzalez, J. E. and Tsien, R. Y. (1995) Biophys. J. 69, 1272-1280.
5 mM CC2-DMPE, a commercially available membrane-bound coumarin phospholipid FRET donor (ThermoFisher Scientific catalog number K1017, CAS number 393782-57-5; tetradecanoic acid, 1,1′-[(1R)-1-[8-(6-chloro-7-hydroxy-2-oxo-2H-1-benzopyran-3-yl)-3-hydroxy-3-oxido-8-oxo-2,4-dioxa-7-aza-3-phosphaoct-1-yl]-1,2-ethanediyl]ester) was prepared in dry DMSO. See also, Improved indicators of cell membrane potential that use fluorescence resonance energy transfer, Gonzalez, J. E. and Tsien, R. Y. (1997) Chem. Biol. 4, 269-277.
Voltage Assay Background Suppression Compound (VABSC-1) is prepared in H2O (89-363 mM, range used to maintain solubility)
Human Serum (HS, Millipore #S1P1-01KL, or Sigma SLBR5469V and SLBR5470V as a 50%/50% mixture, for 25% assay final concentration)
Sodium Chloride 160 mM (9.35 g/L), Potassium Chloride, 4.5 mM (0.335 g/L), Glucose 10 mM (1.8 g/L), Magnesium Chloride (Anhydrous) 1 mM (0.095 g/L), Calcium Chloride 2 mM (0.222 g/L), HEPES 10 mM (2.38 g/L) in water. […]

| Structure (SMILES) | IC50 [nM] |
| --- | --- |
| CCOC(=O)c1c(-c2cc3ccccc3nc2N2CCC[C@H](OC)C2)[nH]c(C)c(OC)c1=O [Compound 231, ethyl 5-methoxy-2-[2-[(3S)-3-methoxy-1-piperidyl]-3-quinolyl]-6-methyl-4-oxo-1H-pyridine-3-carboxylate] | 2000 to 5000 |
| CCOC(=O)c1c(-c2cc3ccccc3nc2N2CCC(F)(F)C2)[nH]c(C)c(OC)c1=O [Compound 242, ethyl 2-[2-(3,3-difluoropyrrolidin-1-yl)-3-quinolyl]-5-methoxy-6-methyl-4-oxo-1H-pyridine-3-carboxylate] | 2000 to 5000 |
| Cc1cc(=O)cc(-c2cc3ccccc3nc2OCc2ccccc2)[nH]1 [Compound 105, 2-(2-benzyloxy-3-quinolyl)-6-methyl-1H-pyridin-4-one] | ≥ 5000 |
| CCOC(=O)c1c(-c2cc3ccccc3nc2N2CCC(OC)CC2)[nH]c(C)c(OC)c1=O [Compound 229, ethyl 5-methoxy-2-[2-(4-methoxy-1-piperidyl)-3-quinolyl]-6-methyl-4-oxo-1H-pyridine-3-carboxylate] | 2000 to 5000 |
| COc1c(Oc2cc(C(F)(F)F)c(F)cc2-c2cc(=O)nc(C)[nH]2)ccc(F)c1F [Compound 55, 6-[2-(3,4-difluoro-2-methoxy-phenoxy)-5-fluoro-4-(trifluoromethyl)phenyl]-2-methyl-1H-pyrimidin-4-one] | ≥ 5000 |
| CCOC(=O)c1c(-c2cc3ccccc3nc2N2CCC(C)(C)C2)[nH]c(C)c(OC)c1=O [Compound 238, ethyl 2-[2-(3,3-dimethylpyrrolidin-1-yl)-3-quinolyl]-5-methoxy-6-methyl-4-oxo-1H-pyridine-3-carboxylate] | 500 to 2000 |
| Cc1[nH]c(-c2ccc(C(C)(C)C)cc2OCC2CC2(F)F)cc(=O)c1C (stereo not drawn) [Compound 135, 6-[4-tert-butyl-2-[(2,2-difluorocyclopropyl)methoxy]phenyl]-2,3-dimethyl-1H-pyridin-4-one] | 500 to 2000 |

Now from value to molecule:

| IC50 [nM] | Structure (SMILES) |
| --- | --- |
| 500 to 2000 | CCOC(=O)c1c(-c2cc3ccccc3nc2N2CCCCC2)[nH]c(C)c(OC)c1=O [Compound 250, ethyl 5-methoxy-6-methyl-4-oxo-2-[2-(1-piperidyl)-3-quinolyl]-1H-pyridine-3-carboxylate] |
| 2000 to 5000 | CCOC(=O)c1c(-c2cc3ccccc3nc2N2CC[C@H](OC)C2)[nH]c(C)c(OC)c1=O [Compound 244, ethyl 5-methoxy-2-[2-[(3S)-3-methoxypyrrolidin-1-yl]-3-quinolyl]-6-methyl-4-oxo-1H-pyridine-3-carboxylate] |
| 500 to 2000 | Cc1c(Oc2ncc(C(F)(F)F)c(C)c2-c2cc(=O)c(C(N)=O)c[nH]2)ccc(F)c1F [Compound 310, 6-[2-(3,4-difluoro-2-methyl-phenoxy)-4-methyl-5-(trifluoromethyl)-3-pyridyl]-4-oxo-1H-pyridine-3-carboxamide] |
| ≥ 5000 | Cc1cc(=O)cc(-c2ccc(C(F)(F)F)cc2C2=CCC(F)(F)CC2)[nH]1 [Compound 324, 2-[2-(4,4-difluorocyclohexen-1-yl)-4-(trifluoromethyl)phenyl]-6-methyl-1H-pyridin-4-one] |
| 2000 to 5000 | COC(=O)c1c(-c2cc(C(F)(F)F)ncc2N2CCCC(F)(F)CC2)[nH]c(C)c(C)c1=O [Compound 297, methyl 2-[5-(4,4-difluoroazepan-1-yl)-2-(trifluoromethyl)-4-pyridyl]-5,6-dimethyl-4-oxo-1H-pyridine-3-carboxylate] |
| 500 to 2000 | COc1c(Oc2cnc(C(F)(F)F)cc2-c2[nH]c(C)c(C)c(=O)c2C(=O)O)ccc(F)c1F [Compound 280, 2-[5-(3,4-difluoro-2-methoxy-phenoxy)-2-(trifluoromethyl)-4-pyridyl]-5,6-dimethyl-4-oxo-1H-pyridine-3-carboxylic acid] |
| 500 to 2000 | Cc1cc(=O)cc(-c2ccc(C(F)(F)F)cc2C2CCC(F)(F)CC2)[nH]1 [Compound 325, 2-[2-(4,4-difluorocyclohexyl)-4-(trifluoromethyl)phenyl]-6-methyl-1H-pyridin-4-one] |
| 2000 to 5000 | Cc1cnc(N2CCCC(F)(F)CC2)c(-c2cc(=O)cc(C)[nH]2)c1 [Compound 320, 2-[2-(4,4-difluoroazepan-1-yl)-5-methyl-3-pyridyl]-6-methyl-1H-pyridin-4-one] |
